≈ marks a conversion by molar mass, not a printed value. Where two headings read alike, the source gives them in different places.

What is called EC50 is the concentration needed to bring the measured effect to its halfway point. The term solubility denotes the concentration that dissolves in the medium under given conditions.

The target of data set [1] is T1, human CB1R (Homo sapiens, UniProt P21554).
T1 construct: host or cells: CHO cells
Description: CB1R mediated modulation of cAMP synthesis. It is filed as cell-based. Particulars: CHO cells expressing human CB1R, forskolin-stimulated cAMP. Here is the method: Compounds of the invention are evaluated for their CB1 agonist or inverse agonistic activity in accordance with the following experimental method.
(§1) CHO cells expressing human CB1R (Euroscreen) are plated at a density of 5000 cells per well in 384 well plates and incubated overnight at 37° C. After removing the media, the cells are treated with test compounds diluted in stimulation buffer containing 1 mM IBMX, 0.25% BSA and 10 uM Forskolin. The assay is incubated for 30 minutes at 37° C. Cells are lysed and the cAMP concentration is measured using DiscoverX—XS cAMP kit, following the manufacturer's protocol. In this setting, agonists will decrease forskolin induced production of cAMP while inverse agonists will further increase forskolin induced production of cAMP. EC50 of agonists are calculated as follows. The maximal amount of cAMP produced by forskolin compared to the level of cAMP inhibited by 1 uM CP55940 is defined as 100%. The EC50 value of each test compound is determined as the concentration at which 50% of the forskolin-stimulated cAMP synthesis is inhibited. Data is analyzed using a four-parameter logistic model. (Model 205 of XLfit 4.0).

In data set [2] the test system is Salmonella bacterial strains TA98 and TA100. As to the kind of experiment: Ames mutagenicity assay: bacteria reverse mutation screening assay. The conditions noted are these: TA98 and TA100, presence or absence of S9. Type of data set: cell-based. Here is the method:
The Ames ^(1) Salmonella bacterial strains used in the abbreviated screening assay ^(2) are TA98 and TA100. Actively growing (log phase) bacteria are incubated with test compound and trace amounts of histidine in the presence or absence of S9 for 48 hours on minimal agar plates. Test compound is dissolved in DMSO to a final concentration of 100 mg/ml. The stock is serially diluted to yield concentrations of 100, 50, 25 12.5 and 6.3 mg/ml. Fifty microliters of dosing solution is combined with top agar and buffer (or S9 mix) and poured on duplicate plates to yield effective doses of 5000, 2500, 1250, 625 and 313 μg/plate. Positive and negative controls plates are included. Formation of colonies after 48 hr incubation at 37° C. is an indication of genetic reversion, either arising spontaneously or caused by the test compound. The average number of spontaneous colonies growing on control plates is compared to the number of colonies on test plates. A fold increase of 2-3× over background is generally considered a positive response for mutagenicity. • 1. Maron, D. M. and Ames, B. N. (1983). “Revised Methods for the Salmonella Mutagenicity Test”. Mutat. Res. 113, 173-215. • 2. D. A. Burke, D. J. Wedd, and B. Burlinson (1996). “Use of the Miniscreen assay to screen novel compounds for bacterial mutagenicity in the pharmaceutical industry”. Mutagenesis 11: 201-205.
(In the Ames test, an excess of revertant colonies over the control signals mutagenicity.)

For data set [3], the target named is T2, human CB2R (Homo sapiens, UniProt P34972).
T2 construct: host or cells: CHO cells
Description: CB2R mediated modulation of cAMP synthesis. It is filed as cell-based. The protocol: Compounds of the invention are evaluated for their CB2 agonist or inverse agonistic activity in accordance with the following experimental method.
as §1, with “CB2R” for “CB1R”

Data set [4] is described as follows: Aqueous (equilibrium) solubility assay. Type of data set: physicochemical. The conditions noted are these: aqueous buffer, thermodynamic from solid, 48 hrs equilibrium. Here is the method: The equilibrium solubility of compounds is determined in pH 2, 4.5, 6.8 buffers. Prior to solubility measurement, the crystalline/amorphous characteristics of the sample are determined by observing the powder form under polarized light microscope. Solubility is only measured when compound is crystalline.
Approximately 2 mg of compound are weighed out into a vial and 1-2 ml of buffer are added into the vial (pHs 2 & 4.5, use 1 ml and for pHs 6.8 and 7.4 use 2 ml of buffer). The vial is rotated for 48 hrs protected from light. After 48 hrs, the sample is transferred into an eppendorf tube and centrifuged for 10 minutes at 14,000 RPM, if the supernatant is not clear, it is filtered (PVDF filter). The clear supernatant is diluted if necessary, before analyzing via HPLC. The final pH of the supernatant or the filtrate is measured and reported. The external calibration curve is used to determine the solubility value. The percentage of extraneous peaks relative to the parent peak is monitored in the standard solution as well as the solubility sample. Preferred compounds of the invention will have a solubility of >100 μg/ml.

Data set [5] in a line: Human microsomal stability assay. It is filed as in vitro ADME. Particulars: human liver microsomes 1 mg protein/ml, 1 uM compound, pH 7.4. The protocol: The double time point high throughput screen for human liver microsomal metabolic stability is used to measure the in vitro metabolism of test compounds by human liver microsomal enzymes. The data collected are analyzed to calculate a half-life (t½, min) and clearance (expressed as percent hepatic blood flow, % QH) for test compounds. The assay is performed in 50 mM potassium phosphate buffer, pH 7.4 and 2.5 mM NADPH. Test samples are dissolved in DMSO and acetonitrile for a final assay concentration of 1 uM. Human liver microsomes are diluted in assay buffer to a final assay concentration of 1 mg protein/ml. Compound solution and microsome suspension are added to assay buffer for a final incubation volume of 350 ul. The preparation is incubated for 5 min in a 37° C. water bath. The reaction is started by the addition of NADPH. Volumes of 80 ul are removed from the incubation mix at 0, 5, and 30 min after the start of the reaction and added to 160 ul acetonitrile. The supernatant is transferred to 0.25 mm glass fiber filter plates and centrifuged for 5 min at 3000 rpm. Injection volumes of 10 ul are typically added to HPLC columns with formic acid in water or acetonitrile at a flow rate of 0.3 ml/min. Percent loss of parent compound is calculated from the area under each time point to determine the half-life and clearance. Preferred compounds of the invention will have a human liver microsomal stability of <25% QH.

Setting [6] is: pH 4.5 buffer, read-out: solubility at pH 4.5.
The mark [7] stands for this setting: pH 6.8 buffer, read-out: solubility at pH 6.8.

T2 sequence (P34972 whole entry): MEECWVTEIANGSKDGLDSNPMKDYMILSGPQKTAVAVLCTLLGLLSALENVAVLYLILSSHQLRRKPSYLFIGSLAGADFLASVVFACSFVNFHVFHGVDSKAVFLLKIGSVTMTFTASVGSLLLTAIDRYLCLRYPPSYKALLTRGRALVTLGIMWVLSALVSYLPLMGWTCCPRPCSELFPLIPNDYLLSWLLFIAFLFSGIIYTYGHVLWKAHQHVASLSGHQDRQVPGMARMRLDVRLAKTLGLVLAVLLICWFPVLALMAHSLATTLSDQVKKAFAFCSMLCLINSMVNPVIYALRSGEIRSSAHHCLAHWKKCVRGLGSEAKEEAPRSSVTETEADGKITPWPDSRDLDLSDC
T1 sequence (P21554 whole entry): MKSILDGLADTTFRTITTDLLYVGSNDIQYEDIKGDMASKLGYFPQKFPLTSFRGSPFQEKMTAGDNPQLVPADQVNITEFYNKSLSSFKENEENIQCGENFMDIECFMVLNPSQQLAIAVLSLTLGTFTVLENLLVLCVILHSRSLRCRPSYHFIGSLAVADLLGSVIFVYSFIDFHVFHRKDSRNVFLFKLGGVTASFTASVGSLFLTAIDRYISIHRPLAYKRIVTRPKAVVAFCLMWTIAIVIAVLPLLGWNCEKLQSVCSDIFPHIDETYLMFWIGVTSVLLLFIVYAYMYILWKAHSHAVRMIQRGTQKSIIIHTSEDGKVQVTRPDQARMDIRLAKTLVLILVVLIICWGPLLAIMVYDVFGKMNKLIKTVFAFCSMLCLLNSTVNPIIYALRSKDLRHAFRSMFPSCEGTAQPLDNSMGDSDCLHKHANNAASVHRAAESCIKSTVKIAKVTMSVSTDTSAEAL

Regarding `CC(C)(C)n1nnc(NC(=O)C(C)(C)S(=O)(=O)C2CCOCC2)n1` [Table II compound 1], the EC50 is > 50 µM in data set [1] (CB1 CAMP EC50, Table XI); > 20 µM in data set [1] (CB1 EC50, Table II); 0.021 µM in data set [3]. Besides, the Ames entry in data set [2] is “negative”. The values for the solubility at 48 h in data set [4] (setting [6]) and in data set [4] (setting [7]) were > 2120 µg/mL and > 1750 µg/mL, respectively. For the same compound, the “HLM clearance (percent hepatic blood flow)” value in data set [5] is <30.10 QH %.

For the compound `CC(C)(C)n1nnc(NC(=O)C(C)(C)S(=O)(=O)CC2CCOCC2)n1` [Table II compound 2], the EC50 in data set [1] (CB1 CAMP EC50, Table XI) was > 50 µM; in data set [1] (CB1 EC50, Table II), > 50 µM; in data set [3] it was 0.05 µM. For the same compound, the Ames entry in data set [2] is “negative”. For the same compound, the solubility at 48 h was 391 µg/mL (≈ 1050 µM) in data set [4] (setting [6]) and 353 µg/mL (≈ 945 µM) in data set [4] (setting [7]). The “HLM clearance (percent hepatic blood flow)” value in data set [5] is <30.10 QH %.

As to `CC[C@H](C)S(=O)(=O)C(C)(C)C(=O)Nc1nnn(C(C)(C)C)n1` [Table II compound 5], the EC50 in data set [1] (Table II, read-out: CB1 EC50) was > 50 µM; in data set [1] (Table XI, read-out: CB1 CAMP EC50), > 50 µM; in data set [3] (Table II, CHO cells expressing human CB2R, forskolin-stimulated cAMP, read-out: CB2 EC50), 0.101 µM. Besides, the Ames result in data set [2] was “negative”. In addition, the figures for the solubility at 48 h in data set [4] (setting [6]) and in data set [4] (setting [7]) were 1210 µg/mL (≈ 3640 µM) and 1150 µg/mL (≈ 3470 µM), respectively. In addition, the “HLM clearance (percent hepatic blood flow)” value in data set [5] is listed as <30.10 QH %.

For `CC(C)(C)n1nnc(NC(=O)C(C)(C)S(=O)(=O)c2ccc(F)cc2)n1` [Table II compound 6], the EC50 was 39.5 µM in data set [1] (CB1 CAMP EC50, Table XI); 39.5 µM in data set [1] (CB1 EC50, Table II); 0.022 µM in data set [3]. The Ames entry in data set [2] is listed as “negative”. Also, the solubility at 48 h in data set [4] (setting [6]) is 133 µg/mL (≈ 360 µM); in data set [4] (setting [7]) it was 122 µg/mL (≈ 330 µM). Also, the “HLM clearance (percent hepatic blood flow)” value in data set [5] is reported as <30 QH %.

Values taken from patent US8329735B2, “Tetrazole compounds which selectively modulate the CB2 receptor” (Boehringer Ingelheim International GmbH, priority 2010, dated 2012).
